Legend:
[1] = test system: TAZ-IND MCF10A-TAZ tumor cells; assay: cell viability relative to DMSO control; higher = less cytotoxic; extreme values may be limits of the assay; settings: 72 h
Description: (§1)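 TAZ-dependent (grown with 2 ug/ml dox) and TAZ-independent MCF10A-TAZ tumor-derived breast cancer stem-like cells were plated in 384-well plates and treated with serially diluted compounds (0.65-10 uM) for 72 h. Viability was read by resazurin assay and expressed as % of DMSO-treated control.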

[2] = test system: TAZ-DEP MCF10A-TAZ tumor cells; assay: as above; settings: 72 h
Description: as §1

Structure (SMILES) | cell viability ([1]; 0.65 µM) [%] | cell viability ([1]; 1.25 µM) [%] | cell viability ([1]; 2.5 µM) [%] | cell viability ([1]; 5 µM) [%] | cell viability ([1]; 10 µM) [%] | cell viability ([2]; 0.65 µM) [%] | cell viability ([2]; 1.25 µM) [%] | cell viability ([2]; 2.5 µM) [%] | cell viability ([2]; 5 µM) [%] | cell viability ([2]; 10 µM) [%]
CC(C)(C)c1ccc(S(=O)(=O)NCc2ccc(C(=O)Nc3cccnc3)cc2)cc1 [STF-31] | 99 | 100 | 100 | 97 | 96 | 100 | 100 | 100 | 99 | 98
COc1cc(F)c(F)c(Nc2ccc(I)cc2F)c1NS(=O)(=O)C1(C[C@H](O)CO)CC1 [Refametinib (RDEA119, Bay 86-9766)] | 84 | 82 | 80 | 77 | 71 | 53 | 51 | 51 | 51 | 50
CN(C)CCSSCCNC(=O)C1CCN(C(=O)CSc2ccc(Cl)cc2)CC1 [6H05] | 99 | 98 | 92 | 88 | 83 | 96 | 91 | 89 | 66 | 23
O=C1NC(=O)/C(=C/c2ccc(-c3ccc(F)cc3O)o2)S1 | 72 | 75 | 72 | 67 | 63 | 62 | 53 | 51 | 46 | 43
O=C(/C=C/c1ccc2ccccc2n1)c1ccncc1 [PFK15] | 98 | 98 | 99 | 95 | 97 | 100 | 100 | 81 | 47 | 31
CCCCCCCCCCCC1=C(O)C(=O)C=C(O)C1=O [Embelin] | 89 | 90 | 90 | 89 | 82 | 89 | 84 | 75 | 57 | 28
CCc1nc(N)nc(N)c1-c1ccc(Cl)cc1 [Pyrimethamine] | 100 | 100 | 100 | 100 | 98 | 100 | 100 | 98 | 85 | 56
CC(=O)c1c(C)c2cnc(Nc3ccc(N4CCNCC4)cn3)nc2n(C2CCCC2)c1=O | 100 | 100 | 100 | 100 | 96 | 79 | 73 | 70 | 59 | 41
CNCc1ccc(-c2cc(-c3nc(-c4ccc(S(=O)(=O)C(C)C)cc4)cnc3N)on2)cc1 [VE-822] | 96 | 87 | 81 | 75 | 69 | 55 | 37 | 29 | 23 | 20
C[C@H]1COC2=C1C(=O)C(=O)c1c2ccc2c1CCCC2(C)C [Cryptotanshinone] | 96 | 97 | 93 | 87 | 79 | 96 | 94 | 92 | 74 | 30
COC1CCN(C(=O)c2cc(Cc3n[nH]c(=O)c4ccccc34)ccc2F)CC1 [AZD2461] | 94 | 89 | 91 | 83 | 78 | 94 | 91 | 94 | 70 | 56
CC(C)N(CCCNC(=O)Nc1ccc(C(C)(C)C)cc1)C[C@H]1O[C@@H](n2cc(Br)c3c(N)ncnc32)[C@H](O)[C@@H]1O [SGC 0946] | 94 | 89 | 79 | 34 | 1 | 89 | 83 | 78 | 63 | -1
O=C(O)c1cc2cccc([N+](=O)[O-])c2[nH]1 | 100 | 100 | 100 | 97 | 70 | 100 | 98 | 87 | 47 | 2
O=[N+]([O-])C=Cc1ccc2c(c1)OCO2 | 100 | 99 | 98 | 98 | 31 | 100 | 100 | 100 | 78 | 1
Cc1[nH]nc(C(F)(F)F)c1Cc1sc2c(c1C(=O)N1C[C@](C)(O)CO1)c(=O)n(C)c(=O)n2C(C)C [AZD3965] | 92 | 87 | 91 | 60 | 47 | 54 | 49 | 45 | 39 | 32
NCCCC[C@@H]1NC(=O)[C@@H](Cc2ccc(O)cc2)NC(=O)[C@H](CC(=O)O)NC(=O)CNC(=O)[C@H](CCCN=C(N)N)NC1=O [Cyclo(RGDyK)] | 98 | 94 | 86 | 74 | 65 | 99 | 86 | 59 | 49 | 27
COCCOc1cnc2ccn([C@H](C)c3nnc4c(F)cc(-c5cnn(C)c5)cn34)c(=O)c2c1 [AMG 337] | 97 | 97 | 100 | 97 | 100 | 88 | 84 | 77 | 68 | 60
C#Cc1cccc(Nc2ncnc3cc4c(cc23)OCCOCCOCCO4)c1 [Icotinib] | 100 | 100 | 100 | 100 | 96 | 100 | 100 | 100 | 89 | 34

Source: the supplement of paper PMC8239392
